Experimental findings from ChEMBL document CHEMBL3407345, “Synthesis and biological evaluation of pyridazino[1',6':1,2]pyrido[3,4-b]indolinium and pyridazino[1,6-a]benzimidazolium salts as anti-inflammatory agents” (Eur J Med Chem, 2015) are described below.

In one data set the test system is Mus musculus. Put plainly: Inhibition of LPS-stimulated TNFalpha production in spelnocytes derived from C57BL/6 mouse treated with two doses of compound at 2 mg/kg, ip at interval of 18 hrs measured 4 hrs after second dose by cytometric bead array method. The format is functional, organism-based. On the set-up: dose 2 mg/kg.
A short description of data set [1]: Anti-inflammatory activity in CD14 expressing human monocytes assessed as inhibition of LPS-stimulated TNFalpha production at 0.5 uM incubated for 24 hrs followed by further stimulation with LPS during last 4 hrs by ELISA method. The format is functional. The note with it: Monocyte. (An ELISA detects its analyte on a solid surface through an enzyme-linked reagent.)

In data set [2] the test system is PBMC. Put plainly: Anti-inflammatory activity in human PBMC assessed as inhibition of LPS-stimulated TNFalpha production at 0.1 uM incubated for 24 hrs followed by further stimulation with LPS during last 4 hrs by ELISA method. The format is functional.
Data set [3] is described as follows: Toxicity against human THP1 cells assessed as cell viability at 10 uM incubated for 24 hrs by propidium iodide staining based flow cytometry. As to conditions: thp-1, 24 h.
In data set [4] the test system is Monocyte. The data set can be described thus: Anti-inflammatory activity in CD14 expressing human monocytes assessed as inhibition of LPS-stimulated TNFalpha mRNA expression overnight incubated with 1 uM compound followed by further stimulation with LPS for 2 hrs by quantitative RT-PCR analysis. The format is functional, cell-based.
The nature of data set [5]: Toxicity against LPS-stimulated human THP1 cells assessed as cell viability at 10 uM incubated for 24 hrs by propidium iodide staining based flow cytometry. As to conditions: thp-1, 24 h.
For data set [6], the species on record is Homo sapiens. The data set can be described thus: Anti-inflammatory activity in human MDDC assessed as inhibition of poly I:C stimulated-IL12 production at 1 and 5 uM pre-incubated for 1 hr followed by overnight poly I:C stimulation by cytometric bead array method. The format is functional.
Data set [7] concerns PBMC. The data set can be described thus: Anti-inflammatory activity in human PBMC assessed as inhibition of LPS-stimulated TNFalpha production incubated for 24 hrs followed by further stimulation with LPS during last 4 hrs by ELISA method. The format is functional, cell-based.
Data set [8] can be described thus: Anti-inflammatory activity in human THP1 cells assessed as inhibition of LPS-stimulated TNFalpha production at 10 uM incubated for 24 hrs followed by further stimulation with LPS during last 4 hrs by ELISA method. The format is functional. As to conditions: THP-1.
Data set [9] can be described thus: Anti-inflammatory activity in CD14 expressing human monocytes assessed as inhibition of LPS-stimulated TNFalpha production incubated for 24 hrs followed by further stimulation with LPS during last 4 hrs by ELISA method. The format is functional, cell-based. As to conditions: Monocyte.
Data set [10] is described as follows: Anti-inflammatory activity in human THP1 cells assessed as inhibition of LPS-stimulated TNFalpha production at 1 uM incubated for 24 hrs followed by further stimulation with LPS during last 4 hrs by ELISA method. As to conditions: THP-1. The format is functional.
The subject of data set [11] is PBMC. The data set can be described thus: Anti-inflammatory activity in human PBMC assessed as inhibition of LPS-stimulated TNFalpha production at 5 uM incubated for 24 hrs followed by further stimulation with LPS during last 4 hrs by ELISA method. The format is functional.
A short description of data set [12]: Anti-inflammatory activity in CD14 expressing human monocytes assessed as inhibition of LPS-stimulated TNFalpha production at 1 uM incubated for 24 hrs followed by further stimulation with LPS during last 4 hrs by ELISA method. The note with it: Monocyte. The format is functional.
Data set [13] is described as follows: Anti-inflammatory activity in human THP1 cells assessed as inhibition of LPS-stimulated TNFalpha production at 0.1 uM incubated for 24 hrs followed by further stimulation with LPS during last 4 hrs by ELISA method. The format is functional. As to conditions: THP-1.
Data set [14] has as its system PBMC. Put plainly: Anti-inflammatory activity in human PBMC assessed as inhibition of LPS-stimulated TNFalpha production at 10 uM incubated for 24 hrs followed by further stimulation with LPS during last 4 hrs by ELISA method. The format is functional.
The test system of data set [15] is Monocyte. Put plainly: Anti-inflammatory activity in human monocytes assessed as inhibition of poly I:C stimulated-IL12 production at 1 and 5 uM pre-incubated for 1 hr followed by overnight poly I:C stimulation by cytometric bead array method. The format is functional, cell-based.
Data set [16] has as its system PBMC. Put plainly: Anti-inflammatory activity in human PBMC assessed as inhibition of LPS-stimulated TNFalpha production at 1 uM incubated for 24 hrs followed by further stimulation with LPS during last 4 hrs by ELISA method. The format is functional.
Data set [17] is described as follows: Anti-inflammatory activity in human THP1 cells assessed as inhibition of LPS-stimulated TNFalpha production at 5 uM incubated for 24 hrs followed by further stimulation with LPS during last 4 hrs by ELISA method. The note with it: THP-1. The format is functional.
Data set [18] in a line: Anti-inflammatory activity in CD14 expressing human monocytes assessed as inhibition of LPS-stimulated TNFalpha production at 2.5 uM incubated for 24 hrs followed by further stimulation with LPS during last 4 hrs by ELISA method. The format is functional. As to conditions: Monocyte.
The species named for data set [19] is Homo sapiens. Put plainly: Anti-inflammatory activity in human MDDC assessed as inhibition of poly I:C stimulated-TNFalpha production at 1 and 5 uM pre-incubated for 1 hr followed by overnight poly I:C stimulation by ELISA method. The format is functional.
Data set [20] can be described thus: Toxicity against LPS-stimulated human THP1 cells assessed as cell viability at 10 uM incubated for 24 hrs by propidium iodide staining based flow cytometry relative to control. Also noted: species or system THP-1. The note with it: read-out: Activity. (A flow cytometer gives signals particle by particle.)
Data set [21] can be described thus: Anti-inflammatory activity in human THP1 cells assessed as inhibition of LPS-stimulated TNFalpha production incubated for 24 hrs followed by further stimulation with LPS during last 4 hrs by ELISA method. The format is functional, cell-based. As to conditions: THP-1.
Data set [22] has as its system Monocyte. Put plainly: Anti-inflammatory activity in human monocytes assessed as inhibition of poly I:C stimulated-TNFalpha production at 1 and 5 uM pre-incubated for 1 hr followed by overnight poly I:C stimulation by ELISA method. The format is functional, cell-based.
Data set [23] in a line: Anti-inflammatory activity in CD14 expressing human monocytes assessed as inhibition of LPS-stimulated TNFalpha production at 10 uM incubated for 24 hrs followed by further stimulation with LPS during last 4 hrs by ELISA method. The format is functional. As to conditions: Monocyte.

Active and inactive are the calls of the source. The calls are words filed in the database; no cut-off is given here.

The inhibition is the change of the read-out against control, counted positive when it falls. Usually IC50 stands for the point on the concentration scale where inhibition reaches its midpoint. Consider `COc1ccc2c(c1)[nH]c1c2cc[n+]2nc(C)c(C)cc12.[Br-]`, for which the inhibition entry in the data set on Mus musculus, with Monocyte [4], in the data set listed under Homo sapiens [6], in the data set with Monocyte [15], in the data set filed under Homo sapiens [19] and in the data set with Monocyte [22] was “Active” in each case. Moreover, the inhibition at 0.5 µM in [1] stood at 28.6%. The results for the inhibition at 0.1 µM (in the data set on PBMC [2]; in data set [13]) were 22.7% and -0.97%, respectively. The Activity entry in [3] and in [5] was “Non-toxic” each time. Also, the IC50 in the data set on PBMC [7] was determined as 3.91 µM; in [9], 1820 nM; in [21], 4.49 µM. Further, the inhibition at 10 µM in data set [8] is 87.8%; in the data set with PBMC [14] it was 69.2%; in data set [23] it was 95.3%. In addition, the results for the inhibition at 1 µM (in data set [10]; in data set [12]; in the data set on PBMC [16]) were 34.9%, 38.1% and 38.8%, respectively. Moreover, the figures for the inhibition at 5 µM (with PBMC [11]; in data set [17]) were 71.2% and 63.4%, respectively. In addition, in data set [18], the inhibition at 2.5 µM is 56.4%. Besides, in data set [20], the viability at 24 h, 10 µM was determined as 61.3%.
